Source: ChEMBL document CHEMBL3272289, “Amino acids. 1. alpha-Hydroxymethylphenylalanines” (1976)
Active and inactive are the calls of the source. The calls are words filed in the database; no cut-off is given here.

Assays:
Rattus norvegicus [1] = assay: Hypotensive effect in conscious spontaneously hypertensive rat assessed as reduction in blood pressure at 100 to 300 mg/kg, po; format: functional, organism-based
Rattus norvegicus [2] = assay: Hypotensive effect in conscious spontaneously hypertensive rat assessed as reduction in blood pressure at 100 mg/kg, po administered as single dose; format: functional
Rattus norvegicus [3] = assay: Hypotensive effect in conscious spontaneously hypertensive rat assessed as reduction in blood pressure at 50 mg/kg, po administered as single dose; format: functional

Question: How did the Activity (Rattus norvegicus [1]) turn out when `NC(CO)(Cc1ccc(O)c(O)c1)C(=O)O` (centres undefined) was run?
Answer: The Activity was “inactive”.

Question: With `NC(CO)(Cc1ccc(O)cc1)C(=O)O` (centres undefined) as the compound, how does the Activity (Rattus norvegicus [1]) read?
Answer: Its Activity is “inactive”.

Question: For `C[C@](N)(Cc1ccc(O)c(O)c1)C(=O)O` [METHYLDOPA], which Activity (Rattus norvegicus [2]) is on record?
Answer: The Activity was 85 mmHg.

Question: What about the Activity (Rattus norvegicus [3]) of the same compound?
Answer: The Activity was 44 mmHg.
